In patent publication US20050106635A1, “Compositions and methods for regulating thyroid hormone metabolism and cholesterol and lipid metabolism via the nuclear receptor car” (priority 2002, published 2005):

Experiments:
[1] = system: mouse sulfotransferase genes; assay: Effect of TCPOBOP on expression of the known mouse sulfotransferase genes (method not specified); assay type: in vivo; conditions: mice, liver
Experimental: (§1) In these experiments, three mice were treated with 1 mg/kg TCPOBOP in 5% dimethyl sulfoxide (DMSO) and corn oil, intraperitoneally. Control mice (n—3) received vehicle alone. Each mouse received two injections at 24 hour intervals. Livers were harvested after the second injection. Thus, total treatment time was 28 hours. Total mRNA was isolated from the livers using the Trizol method and probes for hybridization to the Affymetrix chips were prepared from the total mRNA. Results were analyzed by Affymetrix microarray Suite version 4.0 software.
Since sulfotransferase activity is important in thyroid metabolism, the effect of TCPOBOP on expression of all of the known mouse sulfotransferase genes was examined. The sulfotransferase set examined included N-SULT, SULT-X1, SULT-X2, aryl sulfotransferase, phenyl sulfotransferase, hydroxysteroid sulfotransferase, SULT-B1, and SUTL1E1. Three of these eight sulfotransferase genes were induced by TCPOBOP. […] Sulfotransferase activity coupled with deiodinase type I activity caused an increased proportion of T4 to be converted to rT3 rather than T3.
The expression of several genes examined in the TCPOBOP study was also examined. Of the sulfotransferase genes, SULT-X1, N-SULT, SULT 1E1, SULT 1B1 and aryl sulfotransferase were examined.

[2] = system: genes involved in hepatic thyroid hormone conjugation and transport; assay: RTQ-PCR of thyroid hormone metabolism genes in liver of TCPOBOP-treated mice; assay type: in vivo, mouse; conditions: 1 mg/kg i.p.
[3] = system: mouse liver genes differentially expressed in response to CAR activation; assay: Affymetrix GeneChip analysis of mouse liver genes differentially expressed after TCPOBOP treatment; assay type: in vivo
Experimental: A global analysis of mouse liver genes differentially expressed in response to CAR activation was performed. Changes in mRNA steady state levels were assessed using AFFYMETRIX® chip technology. AFFYMETRIX® GeneChip murine genome assays (Mu11k set), representing greater than 13,000 full-length genes and EST clusters, were used. The primary sequence sources for this set were combined Unigene and TIGR databases. […] TCPOBOP is a potent and selective activator of mouse CAR and a useful chemical tool for in vivo differential gene expression studies.
as §1

[4] = system: mouse sulfotransferase genes; assay: Northern blot analysis of sulfotransferase mRNAs in liver of TCPOBOP-treated mice; assay type: in vivo; conditions: 1 mg/kg i.p.
T4 = conditions: rats; TCPOBOP at high doses; cited from earlier work
[5] = mice, 1 mg/kg i.p., two injections, liver, 28 hours, Affymetrix chip data

Clc1cnc(Oc2ccc(Oc3ncc(Cl)cc3Cl)cc2)c(Cl)c1 [TCPOBOP, 1,4-bis-[2,-(3,5-dichloropyridyloxy)] benzene]
SULT-1B1 mRNA induction [1]: not induced | SULT-1E1 mRNA induction [1]: not induced | aryl sulfotransferase mRNA induction [1]: not induced | expression of the basolateral transporter mrp3 [2]: increased the expression | GST mu1-1 increase ([2]; RTQ-PCR): 2.7 fold | GST mu5-5 increase ([2]; RTQ-PCR): 4.7 fold | GST theta 1-1 increase ([2]; RTQ-PCR): 2.7 fold | GST-Y increase ([2]; RTQ-PCR): 7.5 fold | SULT-X2 increase ([2]; RTQ-PCR): 30 fold | UDP-glucuronysyl transferase 1A1 increase ([2]; RTQ-PCR): 1.6 fold | number of genes (of more than 13,000) displaying a 2-fold or greater change in expression ([3]; mice, 1 mg/kg i.p., two injections at 24 hour intervals, liver, total treatment time 28 hours): 264 genes | CYP2B10 mRNA upregulation in expression [3, 5]: 40 fold | CYP3A1 mRNA upregulation in expression [3, 5]: 20 fold | decrease in the gene encoding the Na+/K+ transporting ATPase [3, 5]: greater than 2 fold | activation of the CAR nuclear receptor ([3]; mouse liver, in vivo differential gene expression study): Selective and potent activation | N-SULT increase [4]: 11.5 fold | SULT-X1 increase [4]: 10.0 fold | circulating levels of T4 (T4): decreased circulating levels of T4 | glucuronidation of T4 (T4): increase in glucuronidation of T4
